Laboratory results published in patent US20130040291A1, “Detection and Quantification of Cellular Stress Response Resolution Pathway Expression and Functionality and the Effects of Agents or Conditions Thereupon” (priority 2011, published 2013).

What was measured:
[1] = tested on: CDNR4 cells; assay: Determination of the SRID-50% level of 6-TG (calibrated stress conditions); type: cell-based, murine
Procedure: The calibrated stress conditions and the SRID-x % level are determined ideally using parental, control, or vehicle-exposed cells. This portion of the assay requires that several variables, including cell plating density, calibrated stress conditions level, and duration of stress conditions exposure be optimized simultaneously. These variables are interdependent such that each affects the outcome of the other, thereby making this portion of the assay one of the most critical. To achieve high sensitivity for detection of assay endpoints, it is important that the maximum number of cells be evaluated; however, optimal calibrated stress conditions are achieved at relatively low cell plating densities. In addition, cell plating densities and the SKID-x % level of stress inducing agent chosen for use in the assay must be such that fewer than one positive endpoint per well occurs in the assay. Using cell survival as an example, if multiple surviving cell clones are identified in the same well(s) during an experiment, then the cell plating density must be reduced and/or the SRID-x % level must be increased so that the frequency of occurrence of surviving clones is reduced to less than one per well. Thus, optimization of these variables is necessary.
Pilot studies that evaluate a range of cell plating densities and a range of calibrated stress conditions levels for the stress inducing agent of choice are used and are applied to untreated, control or parental cells. It is advisable to use a low plating density that results in rapid expression of stress resolution pathways (within 3 to 4 days where possible), or as quickly as possible after calibrated stress conditions exposure. In spite of potentially significant differences between cells of different types from different tissues and from different species, preliminary results from the SR assay support the conclusion that the optimal plating density for many cell types falls within a predictable range. […] These values can serve as starting points for empirical determination of the optimal cell plating density for the cells of interest to be used in the assay.
After estimating the optimal cell plating density, dose response curves are generated for the calibrated stress conditions agent of interest. For experiments in which cell survival is the phenotype of interest, work with the assay completed to date supports the conclusion that calibrated stress conditions levels that reduce expression of pro-survival pathways to a level that results in survival of one or fewer clones in 50% of the wells of a 96 well plate (defined as the SRID-50%) is the optimal level for assessment of damage avoidance pro-survival pathways. Use of these levels also results in a sufficiently robust expression of damage tolerance paths to make it possible to evaluate differences or changes in expression of these pathways between cell types and/or between differing exogenous exposures. Because cell plating density and level of calibrated stress inducing agent are inter-dependent, it may be necessary to perform several pilot studies using differing cell plating densities and a range of stress-response inducing levels to find the optimal combination of use with the cell type of interest in the assay.
There are two limits associated with Poisson distribution principles that must be considered in selecting the SRID-x % level of stress inducing agent. First, stress induction levels that result in a response frequency, for the response type of interest, that is near or equal to 100% of the sites being evaluated should be avoided and the same considerations are true for stress induction levels resulting in responses frequencies near or equal to 0%. The SR assay cannot accurately quantify response frequencies near 100% or near 0%, and this limitation forms the one of the factors affecting the selection of the SRID-x % level. […]

[2] = tested on: CDNR4 cells; assay: Midway cloning efficiency (mCE), pre-calibrated stress conditions pro-survival pathway function; type: cell-based, murine; details: ENU 20 micrograms/ml 1 hour, 2 weeks (day 14) post-exposure
Description: mCE procedure #2 for cells that grow attached to a surface or basement membrane and/or that have the following growth characteristics when grown in tissue culture. The second method is novel and is recommended for use with epithelial cells, cells that form tight junctions, cells that produce mucinous material during in vitro cell culture, and/or cells that attach to a basement membrane. The latter characteristics are typical of epithelial cells but are not unique to this cell type alone.
This procedure is used to obtain an accurate cell count in vials of very dilute cells that are used for plating cloning efficiency plates. […]
For this procedure, the cell aliquot that was set aside during the initial cell counting is divided into 2 equal groups and diluted as follows. […] Approximately 12 to 15 hours later, the average number of cells per milliliter on the 6 or 12 well plates for both groups A and B is determined using light microscopy to visualize and count the cells. […] Viable cells are counted; dead cells or cell fragments are not counted. […] The final cloning efficiency is determined using the formula presented above (see phase 3 step 5). […]

Compound: CCN(N=O)C(N)=O [ENU, ethylnitrosourea]
- SRID-50% of ENU-exposed cells ([1]; ENU 20 micrograms/ml 1 hour, 2 weeks earlier, 600 cells per well, stress agent 6-TG): 2.5 micrograms/ml
- reduction in the functionality of pro-survival cellular stress response pathways ([1]; ENU-exposed vs unexposed CDNR4 cells, from SRID-50% levels): 20 fold
- SRID-50% level of ENU-exposed CDNR4 cells ([1]; pre-exposure 20 micrograms ENU 1 hour, tested two weeks later, 6-TG for 4 days): 2.5 micrograms 6-TG
- mCE (midway cloning efficiency) [2]: 34.2%
